The test system of assay [1] is Nippostrongylus brasiliensis. In words: In Vitro Assay 2: Nippostrongylus brasiliensis (NIPOBR), acetylcholine esterase readout. The note with it: adult worms, read-out: activity (reduction of AChE compared to negative control); for inhibition at 10 µg/mL: 10 μg/ml (10 ppm); for inhibition at 1 µg/mL: 1 μg/ml (1 ppm). As to the method:
In Vitro Assay 2: Nippostrongylus brasiliensis (NIPOBR)
Adult Nippostrongylus brasiliensis were washed with saline buffer containing 100 U/ml penicillin, 0.1 mg/ml streptomycin and 2.5 μg/ml amphotericin B. Test compounds were dissolved in DMSO and worms were incubated in medium in a final concentration of 10 μg/ml (10 ppm) respectively 1 μg/ml (1 ppm). An aliquot of the medium was used to determine the acetylcholine esterase activity in comparison to a negative control. The principle of measuring acetylcholine esterase as readout for anthelmintic activity was described in Rapson et al (1986) and Rapson et al (1987).

Assay [2] deals with Dirofilaria immitis microfilariae. Briefly: In Vitro Assay 3: Dirofilaria immitis microfilariae (DIROIM L1), motility. The note with it: 72 h, read-out: EC50 (reduction of motility).
Another assay deals with Cooperia curticei. The note with it: 120 h, read-out: activity (larval mortality).
Another assay concerns Haemonchus contortus. The note with it: 120 h, read-out: activity (larval mortality).
A further assay concerns the target C. elegans Slo-1a (Caenorhabditis elegans, UniProt Q95V25).

Chain of C. elegans Slo-1a (Q95V25 whole entry): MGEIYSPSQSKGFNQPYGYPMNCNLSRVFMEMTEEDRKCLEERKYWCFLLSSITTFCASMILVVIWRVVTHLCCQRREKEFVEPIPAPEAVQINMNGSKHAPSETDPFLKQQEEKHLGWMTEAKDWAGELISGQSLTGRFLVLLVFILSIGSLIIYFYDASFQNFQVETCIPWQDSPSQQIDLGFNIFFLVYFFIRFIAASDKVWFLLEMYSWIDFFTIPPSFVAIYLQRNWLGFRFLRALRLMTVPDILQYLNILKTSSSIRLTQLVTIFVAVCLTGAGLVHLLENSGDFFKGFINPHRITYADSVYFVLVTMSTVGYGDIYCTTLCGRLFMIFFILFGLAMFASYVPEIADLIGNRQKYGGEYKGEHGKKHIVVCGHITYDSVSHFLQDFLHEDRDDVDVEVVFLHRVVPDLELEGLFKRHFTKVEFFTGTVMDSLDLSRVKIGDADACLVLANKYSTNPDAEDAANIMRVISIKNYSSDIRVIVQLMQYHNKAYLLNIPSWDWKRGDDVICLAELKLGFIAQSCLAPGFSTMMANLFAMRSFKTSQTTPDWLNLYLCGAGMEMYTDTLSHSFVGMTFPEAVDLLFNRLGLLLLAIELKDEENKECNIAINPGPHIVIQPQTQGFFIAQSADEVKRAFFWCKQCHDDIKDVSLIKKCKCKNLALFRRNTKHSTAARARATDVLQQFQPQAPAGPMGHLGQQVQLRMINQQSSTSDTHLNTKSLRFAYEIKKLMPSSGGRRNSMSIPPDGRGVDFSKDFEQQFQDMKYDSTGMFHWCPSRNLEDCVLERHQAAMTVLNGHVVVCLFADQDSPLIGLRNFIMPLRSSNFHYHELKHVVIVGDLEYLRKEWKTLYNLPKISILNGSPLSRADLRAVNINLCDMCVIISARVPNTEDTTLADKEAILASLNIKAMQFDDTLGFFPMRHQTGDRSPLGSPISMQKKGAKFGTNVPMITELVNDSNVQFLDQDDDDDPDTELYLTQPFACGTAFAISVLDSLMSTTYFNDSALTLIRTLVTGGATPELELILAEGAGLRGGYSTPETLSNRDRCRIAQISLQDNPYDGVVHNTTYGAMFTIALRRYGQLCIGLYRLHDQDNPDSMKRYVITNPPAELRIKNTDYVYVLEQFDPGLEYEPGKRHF
Procedure for C. elegans Slo-1a: In Vitro Assay 1: C. elegans Slo-1a—Action at a Recombinant C. elegans Cell Line
Generation of a Stable C. elegans CHO Cell Line
A CHO cell line was obtained from ATCC, code ATCC CRL-9096. For transfection with plasmid DNA to express C. elegans Slo-1a (accession number AAL28102) CHO cells were passaged to 40% confluence before adding the transfection solution to the cell culture. The transfection solution included 300 μL OptiMEM (Life Technologies, Nr.: 31985), 2 μL (=6 μg) of plasmid DNA containing the C. elegans Slo 1a gene and 9 μL FugeneHD (Promega, Nr.: E2311), and was added to the cells prior to incubation for 48 hours at 37° C., 5% CO2. The transfection medium was exchanged for the selection medium which contains additional G418 (2 mg/ml, Invitrogen, Nr.: 10131) and the cells were seeded into 384 well plates (300 cells/well). After a few weeks, the remaining surviving cells were tested with a voltage sensitive dye (Membrane Potential Assay Kit, Molecular Devices Nr.: R8034) for K+ channel expression. Positive cell clones were purified by the limited dilution technique. For this the clone with the highest and most robust signal in the voltage sensitive dye assay was further subcloned (incubated) in 384 well plates (0.7 cells/well) in order to obtain clonal purity. This generated a final stable CHO cell line expressing the C. elegans Slo-1a.
Cells were cultured at 37° C. and 5% CO2 in MEMalpha with Gutamax I (Invitrogen, Nr.: 32571), supplemented with 10% (v/v) heat inactivated fetal bovine serum (Invitrogen, Nr.: 10500), G418 (1 mg/ml, Invitrogen, Nr.: 10131). Cells were detached using Accutase (Sigma, Nr.: A6964).
Membrane Potential Measurements
Laboratory compound testing was performed on 384-well microtiter plates (MTPs, Greiner, Nr.: 781092). 8000 cells/well were plated onto 384-well MTPs and cultured for 20 to 24 hours at 37° C. and 5% CO2. After removal of the cell culture medium, the cells were washed once with tyrode (150 mM NaCl, 0.3 mM KCl, 2 mM CaCl2, 1 mM MgCl2, 0.8 mM NaH2PO4, 5 mM Glucose, 28 mM Hepes, pH 7.4) and then loaded with the voltage sensitive dye of the Membrane Potential Assay Kit diluted in tyrode for 1 h at room temperature.
After starting the measurement of fluorescence using a FLIPR Tetra (Molecular Devices, Exc. 510-545 nm, Emm. 565-625 nm), test compounds were added followed by the addition of KCl tyrode (final assay concentration: 70 mM KCl, 2 mM CaCl2, 1 mM MgCl2, 0.8 mM NaH2PO4, 5 mM Glucose, 28 mM Hepes, pH 7.4, including the voltage sensitive dye). The measurement was completed after 7 minutes.
The data were evaluated by using the ActivityBase XLfit software (IDBS) for curve fitting and calculation of the half-maximal effective concentration (EC50) and are reported as negative decadic logarithm (pE50).
Procedure for Cooperia curticei: In Vitro Assay 6: Cooperia curticei (COOPCU L3)
Solvent: dimethyl sulfoxide
Approximately 40 nematode larvae (Cooperia curticei) are transferred into a test tube containing the compound solution.
After 5 days percentage of larval mortality is recorded. 100% efficacy means all larvae are killed; 0% efficacy means no larvae are killed.
Procedure for Haemonchus contortus: Solvent: dimethyl sulfoxide
Approximately 40 larvae of the red stomach worm (Haemonchus contortus) are transferred into a test tube containing compound solution.
After 5 days the percentage of larval mortality is recorded. 100% efficacy means all larvae are killed, 0% efficacy means no larvae are killed.

Turning to `Cc1nn2c(C(C)C)c(C(=O)N[C@H]3CCOc4ccccc43)sc2c1-c1cccc(C(F)(F)F)c1F` [Example 3, 7-[2-fluoro-3-(trifluoromethyl)phenyl]-N-[(4S)-3,4-dihydro-2H-chromen-4-yl]-6-methyl-3-(propan-2-yl)pyrazolo[5,1-b][1,3]thiazole-2-carboxamide], the inhibition at 10 µg/mL in assay [1] was greater than 80%. The EC50 (as a rule, the midpoint of the concentration-response curve) was less than 0.1 mg/L in assay [2] and less than 3.16 nM on C. elegans Slo-1a. In addition, the mortality at 20 ppm with Cooperia curticei and in the assay on Haemonchus contortus was 90% each time.

As for `Cc1nn2c(C(C)C)c(C(=O)N[C@H]3CCOc4ccccc43)sc2c1-c1cc(Cl)cc(Cl)c1Cl` [Example 12, N-[(4S)-3,4-dihydro-2H-chromen-4-yl]-6-methyl-3-(propan-2-yl)-7-(2,3,5-trichlorophenyl)pyrazolo[5,1-b][1,3]thiazole-2-carboxamide], the EC50 was less than 0.1 mg/L in assay [2] and less than 3.16 nM at C. elegans Slo-1a. Further, the mortality (in general, the percentage killed) at 20 ppm in the assay on Cooperia curticei turned out to be 100%; with Haemonchus contortus it was 80%.

With `Cc1nn2c(C(C)C)c(C(=O)N[C@H]3CCOc4ccccc43)sc2c1-c1cc(Cl)c(F)c(Cl)c1` [Example 5, 7-(3,5-dichloro-4-fluorophenyl)-N-[(4S)-3,4-dihydro-2H-chromen-4-yl]-3-isopropyl-6-methylpyrazolo[5,1-b][1,3]thiazole-2-carboxamide], the inhibition at 1 µg/mL in assay [1] was greater than 80%. In addition, in assay [1], the inhibition at 10 µg/mL was greater than 80%. Moreover, the EC50 in assay [2] was less than 0.1 mg/L; at C. elegans Slo-1a, less than 3.16 nM. Further, in the assay with Cooperia curticei, the mortality at 20 ppm worked out at 90%.

Take `Cc1nn2c(C(C)C)c(C(=O)N[C@H]3CCc4ccccc43)sc2c1-c1cccc(Cl)c1Cl` [Example 15, 7-(2,3-dichlorophenyl)-N-[(1S)-2,3-dihydro-1H-inden-1-yl]-6-methyl-3-(propan-2-yl)pyrazolo[5,1-b][1,3]thiazole-2-carboxamide]: the EC50 in assay [2] was less than 0.1 mg/L; at C. elegans Slo-1a, less than 3.16 nM.

Regarding `Cc1nn2c(C(C)C)c(C(=O)N[C@H]3CCOc4ccccc43)sc2c1-c1ccc(F)c(N(C)C)c1F` [Example 6, N-[(4S)-3,4-dihydro-2H-chromen-4-yl]-7-[3-(dimethylamino)-2,4-difluorophenyl]-6-methyl-3-(propan-2-yl)pyrazolo[5,1-b][1,3]thiazole-2-carboxamide], in assay [1], the inhibition at 1 µg/mL was greater than 80%. Moreover, the inhibition at 10 µg/mL in assay [1] was greater than 80%. Further, the EC50 in assay [2] is less than 0.1 mg/L; on C. elegans Slo-1a, less than 3.16 nM. Also, the mortality at 20 ppm in the assay on Cooperia curticei came out at 90%.

For `Cc1nn2c(C(C)C)c(C(=O)N[C@H]3CCOc4ccccc43)sc2c1-c1cccc(OC(F)(F)F)c1F` [Example 4, N-[(4S)-3,4-dihydro-2H-chromen-4-yl]-7-[2-fluoro-3-(trifluoromethoxy)phenyl]-3-isopropyl-6-methylpyrazolo[5,1-b][1,3]thiazole-2-carboxamide], the inhibition at 10 µg/mL in assay [1] is greater than 80%. Moreover, the half-maximal effective concentration (EC50) in assay [2] was less than 0.1 mg/L; at C. elegans Slo-1a it was less than 3.16 nM. For the same compound, the mortality at 20 ppm in the assay on Cooperia curticei and in the assay on Haemonchus contortus was 80% throughout.

For `Cc1nn2c(C(C)C)c(C(=O)N[C@H]3CCOc4ccccc43)sc2c1-c1cc(Cl)cc(Cl)c1` [Example 1, 7-(3,5-dichlorophenyl)-N-[(4S)-3,4-dihydro-2H-chromen-4-yl]-3-isopropyl-6-methylpyrazolo[5,1-b][1,3]thiazole-2-carboxamide], in assay [1], the inhibition at 1 µg/mL was greater than 80% and the inhibition at 10 µg/mL was greater than 80%. For the same compound, in assay [2], the concentration for a half-maximal effect (EC50) was less than 0.1 mg/L. Also, the mortality at 20 ppm in the assay on Haemonchus contortus is 90%. Further, on C. elegans Slo-1a, the EC50 is 3.16 to 31.6 nM.

With `Cc1nn2c(C(C)C)c(C(=O)N[C@H]3CCOc4ccccc43)sc2c1-c1ccc(F)c(F)c1F` [Example 9], the results for the half-maximal effective concentration (EC50) (in assay [2]; at C. elegans Slo-1a) were less than 0.1 mg/L and 3.16 to 31.6 nM, respectively. For the same compound, the mortality at 20 ppm in the assay on Cooperia curticei was 90%.

For the compound `Cc1nn2c(C(C)C)c(C(=O)N[C@H]3CCOc4ccccc43)sc2c1-c1ccc(Cl)c(Cl)c1` [Example 7, 7-(3,4-dichlorophenyl)-N-[(4S)-3,4-dihydro-2H-chromen-4-yl]-6-methyl-3-(propan-2-yl)pyrazolo[5,1-b][1,3]thiazole-2-carboxamide], the inhibition at 10 µg/mL in assay [1] was greater than 80%. The values for the EC50 (in assay [2]; at C. elegans Slo-1a) were less than 0.1 mg/L and 3.16 to 31.6 nM, respectively.

As to `Cc1nn2c(C(C)C)c(C(=O)N[C@H]3CCOc4ccccc43)sc2c1-c1cccc(N(C)C)c1F` [Example 13, N-[(4S)-3,4-dihydro-2H-chromen-4-yl]-7-[3-(dimethylamino)-2-fluorophenyl]-6-methyl-3-(propan-2-yl)pyrazolo[5,1-b][1,3]thiazole-2-carboxamide], the inhibition at 1 µg/mL in assay [1] was greater than 80%. Also, the half-maximal effective concentration (EC50) in assay [2] is less than 0.1 mg/L; at C. elegans Slo-1a, less than 3.16 nM. Besides, in the assay on Cooperia curticei, the mortality at 20 ppm was found to be 90%.

Turning to `Cc1nn2c(C(C)C)c(C(=O)N[C@H]3CCOc4ccccc43)sc2c1-c1ccc(F)c(F)c1` [Example 8, 7-(3,4-difluorophenyl)-N-[(4S)-3,4-dihydro-2H-chromen-4-yl]-6-methyl-3-(propan-2-yl)pyrazolo[5,1-b][1,3]thiazole-2-carboxamide], the EC50 in assay [2] was less than 0.1 mg/L; at C. elegans Slo-1a, 3.16 to 31.6 nM.

Consider `Cc1nn2c(C(C)C)c(C(=O)N[C@H]3CCOc4ccccc43)sc2c1-c1cccc(Cl)c1Cl` [Example 2, 7-(2,3-dichlorophenyl)-N-[(4S)-3,4-dihydro-2H-chromen-4-yl]-6-methyl-3-(propan-2-yl)pyrazolo[5,1-b][1,3]thiazole-2-carboxamide], for which the inhibition at 10 µg/mL in assay [1] was greater than 80%. Besides, the half-maximal effective concentration (EC50) was less than 0.1 mg/L in assay [2] and less than 3.16 nM on C. elegans Slo-1a. Further, in the assay on Cooperia curticei, the mortality at 20 ppm came to 90%.

Take `Cc1nn2c(C(C)C)c(C(=O)N[C@H]3CCc4ccccc43)sc2c1-c1cc(Cl)c(F)c(Cl)c1` [Example 14, 7-(3,5-dichloro-4-fluorophenyl)-N-[(1S)-2,3-dihydro-1H-inden-1-yl]-6-methyl-3-(propan-2-yl)pyrazolo[5,1-b][1,3]thiazole-2-carboxamide]: in assay [1], the inhibition at 1 µg/mL is greater than 80% and the inhibition at 10 µg/mL was greater than 80%. The half-maximal effective concentration (EC50) in assay [2] was less than 0.1 mg/L. This compound also gave an EC50 on C. elegans Slo-1a of 3.16 to 31.6 nM.

For the compound `Cc1nn2c(C(C)C)c(C(=O)N[C@H]3CCOc4ccccc43)sc2c1-c1c(Cl)cccc1Cl` [Example 10, 7-(2,6-dichlorophenyl)-N-[(4S)-3,4-dihydro-2H-chromen-4-yl]-6-methyl-3-(propan-2-yl)pyrazolo[5,1-b][1,3]thiazole-2-carboxamide], the concentration for a half-maximal effect (EC50) was less than 0.1 mg/L in assay [2] and less than 3.16 nM on C. elegans Slo-1a.

With `Cc1nn2c(C(C)C)c(C(=O)N[C@H]3CCOc4ccccc43)sc2c1-c1cccc(C(F)(F)F)c1Cl` [Example 11, 7-[2-chloro-3-(trifluoromethyl)phenyl]-N-[(4S)-3,4-dihydro-2H-chromen-4-yl]-6-methyl-3-(propan-2-yl)pyrazolo[5,1-b][1,3]thiazole-2-carboxamide], the half-maximal effective concentration (EC50) in assay [2] is less than 0.1 mg/L; on C. elegans Slo-1a, less than 3.16 nM. In addition, the mortality at 20 ppm in the assay with Cooperia curticei amounted to 100%; with Haemonchus contortus, 90%.
